Measured values taken from ChEMBL document CHEMBL1156163, “(18)F Labeled benzimidazole derivatives as potential radiotracer for positron emission tomography (PET) tumor imaging” (Bioorg Med Chem, 2010).

Experiments:
[1] = Biodistribution in mouse S180 cells xenografted Kunming mouse tumor at 10 to 20 uCi, iv after 120 mins by gamma counting; type: ADME, organism-based, Neoplasm, CCRF S-180; conditions: in vivo, 2 h
[2] = Ratio of drug uptake in tumor to blood of mouse S180 cells xenografted Kunming mouse at 10 to 20 uCi, iv after 120 mins by gamma counting; type: ADME, organism-based, CCRF S-180; conditions: tumour, 2 h
[3] = Ratio of drug uptake in tumor to brain of mouse S180 cells xenografted Kunming mouse at 10 to 20 uCi, iv after 120 mins by gamma counting; type: ADME, organism-based, CCRF S-180; conditions: in vivo, 2 h
[4] = tested on: Pancreas; assay: Biodistribution in mouse S180 cells xenografted Kunming mouse pancreas at 10 to 20 uCi, iv after 5 mins by gamma counting; type: ADME, organism-based, CCRF S-180; conditions: in vivo
[5] = tested on: Lung; assay: Biodistribution in mouse S180 cells xenografted Kunming mouse lung at 10 to 20 uCi, iv after 5 mins by gamma counting; type: ADME, organism-based, CCRF S-180; conditions: in vivo
[6] = tested on: Kidney; assay: Biodistribution in mouse S180 cells xenografted Kunming mouse kidney at 10 to 20 uCi, iv after 5 mins by gamma counting; type: ADME, organism-based, CCRF S-180; conditions: in vivo
[7] = tested on: Muscle tissue; assay: Biodistribution in mouse S180 cells xenografted Kunming mouse muscle at 10 to 20 uCi, iv after 5 mins by gamma counting; type: ADME, organism-based, CCRF S-180; conditions: in vivo
[8] = tested on: Brain; assay: Biodistribution in mouse S180 cells xenografted Kunming mouse brain at 10 to 20 uCi, iv after 5 mins by gamma counting; type: ADME, organism-based, CCRF S-180; conditions: in vivo
[9] = Ratio of drug uptake in tumor to muscle of mouse S180 cells xenografted Kunming mouse at 10 to 20 uCi, iv after 5 mins by gamma counting; type: ADME, organism-based, CCRF S-180; conditions: in vivo
[10] = Ratio of drug uptake in tumor to brain of mouse S180 cells xenografted Kunming mouse at 10 to 20 uCi, iv after 5 mins by gamma counting; type: ADME, organism-based, CCRF S-180; conditions: in vivo
[11] = tested on: Heart; assay: Biodistribution in mouse S180 cells xenografted Kunming mouse heart at 10 to 20 uCi, iv after 15 mins by gamma counting; type: ADME, organism-based, CCRF S-180; conditions: in vivo, 0.25 h
[12] = tested on: Liver; assay: Biodistribution in mouse S180 cells xenografted Kunming mouse liver at 10 to 20 uCi, iv after 15 mins by gamma counting; type: ADME, organism-based, CCRF S-180; conditions: in vivo, 0.25 h
[13] = tested on: Pancreas; assay: Biodistribution in mouse S180 cells xenografted Kunming mouse pancreas at 10 to 20 uCi, iv after 15 mins by gamma counting; type: ADME, organism-based, CCRF S-180; conditions: in vivo, 0.25 h
[14] = tested on: Lung; assay: Biodistribution in mouse S180 cells xenografted Kunming mouse lung at 10 to 20 uCi, iv after 15 mins by gamma counting; type: ADME, organism-based, CCRF S-180; conditions: in vivo, 0.25 h
[15] = tested on: Kidney; assay: Biodistribution in mouse S180 cells xenografted Kunming mouse kidney at 10 to 20 uCi, iv after 15 mins by gamma counting; type: ADME, organism-based, CCRF S-180; conditions: in vivo, 0.25 h
[16] = tested on: Muscle tissue; assay: Biodistribution in mouse S180 cells xenografted Kunming mouse muscle at 10 to 20 uCi, iv after 15 mins by gamma counting; type: ADME, organism-based, CCRF S-180; conditions: in vivo, 0.25 h
[17] = tested on: Brain; assay: Biodistribution in mouse S180 cells xenografted Kunming mouse brain at 10 to 20 uCi, iv after 15 mins by gamma counting; type: ADME, organism-based, CCRF S-180; conditions: in vivo, 0.25 h
[18] = Biodistribution in mouse S180 cells xenografted Kunming mouse tumor at 10 to 20 uCi, iv after 15 mins by gamma counting; type: ADME, organism-based, Neoplasm, CCRF S-180; conditions: in vivo, 0.25 h
[19] = Ratio of drug uptake in tumor to blood of mouse S180 cells xenografted Kunming mouse at 10 to 20 uCi, iv after 15 mins by gamma counting; type: ADME, organism-based, CCRF S-180; conditions: tumour, 0.25 h
[20] = Ratio of drug uptake in tumor to muscle of mouse S180 cells xenografted Kunming mouse at 10 to 20 uCi, iv after 15 mins by gamma counting; type: ADME, organism-based, CCRF S-180; conditions: in vivo, 0.25 h
[21] = Ratio of drug uptake in tumor to brain of mouse S180 cells xenografted Kunming mouse at 10 to 20 uCi, iv after 15 mins by gamma counting; type: ADME, organism-based, CCRF S-180; conditions: in vivo, 0.25 h
[22] = tested on: Heart; assay: Biodistribution in mouse S180 cells xenografted Kunming mouse heart at 10 to 20 uCi, iv after 30 mins by gamma counting; type: ADME, organism-based, CCRF S-180; conditions: in vivo, 0.5 h
[23] = tested on: Liver; assay: Biodistribution in mouse S180 cells xenografted Kunming mouse liver at 10 to 20 uCi, iv after 30 mins by gamma counting; type: ADME, organism-based, CCRF S-180; conditions: in vivo, 0.5 h
[24] = tested on: Pancreas; assay: Biodistribution in mouse S180 cells xenografted Kunming mouse pancreas at 10 to 20 uCi, iv after 30 mins by gamma counting; type: ADME, organism-based, CCRF S-180; conditions: in vivo, 0.5 h
[25] = tested on: Lung; assay: Biodistribution in mouse S180 cells xenografted Kunming mouse lung at 10 to 20 uCi, iv after 30 mins by gamma counting; type: ADME, organism-based, CCRF S-180; conditions: in vivo, 0.5 h
[26] = tested on: Kidney; assay: Biodistribution in mouse S180 cells xenografted Kunming mouse kidney at 10 to 20 uCi, iv after 30 mins by gamma counting; type: ADME, organism-based, CCRF S-180; conditions: in vivo, 0.5 h
[27] = tested on: Blood; assay: Biodistribution in mouse S180 cells xenografted Kunming mouse blood at 10 to 20 uCi, iv after 30 mins by gamma counting; type: ADME, organism-based, CCRF S-180; conditions: in vivo, 0.5 h
[28] = tested on: Brain; assay: Biodistribution in mouse S180 cells xenografted Kunming mouse brain at 10 to 20 uCi, iv after 30 mins by gamma counting; type: ADME, organism-based, CCRF S-180; conditions: in vivo, 0.5 h
[29] = Biodistribution in mouse S180 cells xenografted Kunming mouse tumor at 10 to 20 uCi, iv after 30 mins by gamma counting; type: ADME, organism-based, Neoplasm, CCRF S-180; conditions: in vivo, 0.5 h
[30] = Ratio of drug uptake in tumor to brain of mouse S180 cells xenografted Kunming mouse at 10 to 20 uCi, iv after 30 mins by gamma counting; type: ADME, organism-based, CCRF S-180; conditions: in vivo, 0.5 h
[31] = tested on: Liver; assay: Biodistribution in mouse S180 cells xenografted Kunming mouse liver at 10 to 20 uCi, iv after 60 mins by gamma counting; type: ADME, organism-based, CCRF S-180; conditions: in vivo, 1 h
[32] = tested on: Pancreas; assay: Biodistribution in mouse S180 cells xenografted Kunming mouse pancreas at 10 to 20 uCi, iv after 60 mins by gamma counting; type: ADME, organism-based, CCRF S-180; conditions: in vivo, 1 h
[33] = tested on: Muscle tissue; assay: Biodistribution in mouse S180 cells xenografted Kunming mouse muscle at 10 to 20 uCi, iv after 60 mins by gamma counting; type: ADME, organism-based, CCRF S-180; conditions: in vivo, 1 h
[34] = tested on: Blood; assay: Biodistribution in mouse S180 cells xenografted Kunming mouse blood at 10 to 20 uCi, iv after 60 mins by gamma counting; type: ADME, organism-based, CCRF S-180; conditions: in vivo, 1 h
[35] = tested on: Brain; assay: Biodistribution in mouse S180 cells xenografted Kunming mouse brain at 10 to 20 uCi, iv after 60 mins by gamma counting; type: ADME, organism-based, CCRF S-180; conditions: in vivo, 1 h
[36] = Biodistribution in mouse S180 cells xenografted Kunming mouse tumor at 10 to 20 uCi, iv after 60 mins by gamma counting; type: ADME, organism-based, Neoplasm, CCRF S-180; conditions: in vivo, 1 h
[37] = Ratio of drug uptake in tumor to blood of mouse S180 cells xenografted Kunming mouse at 10 to 20 uCi, iv after 60 mins by gamma counting; type: ADME, organism-based, CCRF S-180; conditions: tumour, 1 h
[38] = Ratio of drug uptake in tumor to muscle of mouse S180 cells xenografted Kunming mouse at 10 to 20 uCi, iv after 60 mins by gamma counting; type: ADME, organism-based, CCRF S-180; conditions: in vivo, 1 h
[39] = tested on: Liver; assay: Biodistribution in mouse S180 cells xenografted Kunming mouse liver at 10 to 20 uCi, iv after 120 mins by gamma counting; type: ADME, organism-based, CCRF S-180; conditions: in vivo, 2 h
[40] = tested on: Kidney; assay: Biodistribution in mouse S180 cells xenografted Kunming mouse kidney at 10 to 20 uCi, iv after 120 mins by gamma counting; type: ADME, organism-based, CCRF S-180; conditions: in vivo, 2 h
[41] = tested on: Muscle tissue; assay: Biodistribution in mouse S180 cells xenografted Kunming mouse muscle at 10 to 20 uCi, iv after 120 mins by gamma counting; type: ADME, organism-based, CCRF S-180; conditions: in vivo, 2 h
[42] = tested on: Blood; assay: Biodistribution in mouse S180 cells xenografted Kunming mouse blood at 10 to 20 uCi, iv after 120 mins by gamma counting; type: ADME, organism-based, CCRF S-180; conditions: in vivo, 2 h
[43] = tested on: Brain; assay: Biodistribution in mouse S180 cells xenografted Kunming mouse brain at 10 to 20 uCi, iv after 120 mins by gamma counting; type: ADME, organism-based, CCRF S-180; conditions: in vivo, 2 h

## N[C@@H](Cc1ccc(OCC[18F])cc1)C(=O)O [FLORETYROSINE F18]
[1]
  Drug uptake: 2.15 % ID/g
[2]
  Ratio: 1.92
[3]
  Ratio: 2.95
[4]
  Drug uptake: 0.93 % ID/g
[5]
  Drug uptake: 16.8 % ID/g
[6]
  Drug uptake: 6.58 % ID/g
[7]
  Drug uptake: 2.88 % ID/g
[8]
  Drug uptake: 0.99 % ID/g
[9]
  Ratio: 0.72
[10]
  Ratio: 2.1
[11]
  Drug uptake: 3.41 % ID/g
[12]
  Drug uptake: 5.6 % ID/g
[13]
  Drug uptake: 0.22 % ID/g
[14]
  Drug uptake: 9.82 % ID/g
[15]
  Drug uptake: 6.79 % ID/g
[16]
  Drug uptake: 3.34 % ID/g
[17]
  Drug uptake: 1.03 % ID/g
[18]
  Drug uptake: 2.5 % ID/g
[19]
  Ratio: 0.76
[20]
  Ratio: 0.75
[21]
  Ratio: 2.43
[22]
  Drug uptake: 3.27 % ID/g
[23]
  Drug uptake: 4.23 % ID/g
[24]
  Drug uptake: 0.11 % ID/g
[25]
  Drug uptake: 8.57 % ID/g
[26]
  Drug uptake: 2.38 % ID/g
[27]
  Drug uptake: 3.23 % ID/g
[28]
  Drug uptake: 1.29 % ID/g
[29]
  Drug uptake: 3.28 % ID/g
[30]
  Ratio: 2.54
[31]
  Drug uptake: 3.56 % ID/g
[32]
  Drug uptake: 0.03 % ID/g
[33]
  Drug uptake: 2.37 % ID/g
[34]
  Drug uptake: 2.51 % ID/g
[35]
  Drug uptake: 0.94 % ID/g
[36]
  Drug uptake: 2.75 % ID/g
[37]
  Ratio: 1.1
[38]
  Ratio: 1.23
[39]
  Drug uptake: 1.22 % ID/g
[40]
  Drug uptake: 1.29 % ID/g
[41]
  Drug uptake: 2.1 % ID/g
[42]
  Drug uptake: 1.12 % ID/g
[43]
  Drug uptake: 0.73 % ID/g

## CCCc1nc2c(C)cc(C(=O)O)cc2n1CC[18F]
[1]
  Drug uptake: 0.49 % ID/g
[2]
  Ratio: 1.63
[3]
  Ratio: 9.8
[4]
  Drug uptake: 2.33 % ID/g
[5]
  Drug uptake: 8.33 % ID/g
[6]
  Drug uptake: 35.9 % ID/g
[7]
  Drug uptake: 1.78 % ID/g
[8]
  Drug uptake: 1.03 % ID/g
[9]
  Ratio: 1.28
[10]
  Ratio: 2.21
[11]
  Drug uptake: 2.66 % ID/g
[12]
  Drug uptake: 4.02 % ID/g
[13]
  Drug uptake: 1 % ID/g
[14]
  Drug uptake: 5.44 % ID/g
[15]
  Drug uptake: 13.79 % ID/g
[16]
  Drug uptake: 1.22 % ID/g
[17]
  Drug uptake: 0.44 % ID/g
[18]
  Drug uptake: 1.41 % ID/g
[19]
  Ratio: 0.63
[20]
  Ratio: 1.16
[21]
  Ratio: 3.2
[22]
  Drug uptake: 1.76 % ID/g
[23]
  Drug uptake: 2.53 % ID/g
[24]
  Drug uptake: 1.03 % ID/g
[25]
  Drug uptake: 3.49 % ID/g
[26]
  Drug uptake: 7.4 % ID/g
[27]
  Drug uptake: 1.36 % ID/g
[28]
  Drug uptake: 0.31 % ID/g
[29]
  Drug uptake: 1.49 % ID/g
[30]
  Ratio: 4.81
[31]
  Drug uptake: 1.55 % ID/g
[32]
  Drug uptake: 0.67 % ID/g
[33]
  Drug uptake: 0.62 % ID/g
[34]
  Drug uptake: 0.95 % ID/g
[35]
  Drug uptake: 0.19 % ID/g
[36]
  Drug uptake: 1.36 % ID/g
[37]
  Ratio: 1.43
[38]
  Ratio: 2.19
[39]
  Drug uptake: 0.38 % ID/g
[40]
  Drug uptake: 1.1 % ID/g
[41]
  Drug uptake: 0.19 % ID/g
[42]
  Drug uptake: 0.3 % ID/g
[43]
  Drug uptake: 0.05 % ID/g
